In brackets after ≈: the same amount, converted by molar mass.
Experiments:
MDA-MB-231 [1] = test: Antiproliferative activity against human MDA-MB-231 cells assessed as inhibition of cell growth measured after 48 hrs by SRB assay; format: functional, cell-based; settings: MDA-MB-231, 48 h
THP-1 = test: Antiproliferative activity against human THP-1 cells assessed as inhibition of cell growth measured after 48 hrs by SRB assay; format: functional, cell-based; settings: THP-1, 48 h
A549 = test: Antiproliferative activity against human A549 cells assessed as inhibition of cell growth measured after 48 hrs by SRB assay; format: functional, cell-based; settings: A549, 48 h
MCF7 [2] = test: Antiproliferative activity against human MCF-7 cells assessed as inhibition of cell growth measured after 48 hrs by SRB assay; format: functional, cell-based; settings: MCF7, 48 h
HCT-116 = test: Antiproliferative activity against human HCT-116 cells assessed as inhibition of cell growth measured after 48 hrs by SRB assay; format: functional, cell-based; settings: HCT-116, 48 h
[3] = Inhibition of bovine brain tubulin polymerisation measured by turbidometric method; format: tissue-based, Bos taurus
[4] = target: DNA topoisomerase 2-alpha (Homo sapiens) (UniProt P11388); test: Inhibition of DNA-topoisomerase 2 in human MCF7 cells using kinetoplast DNA as substrate at 120 uM measured by ELISA; format: cell-based
Chain of DNA topoisomerase 2-alpha (Homo sapiens) (P11388 whole entry): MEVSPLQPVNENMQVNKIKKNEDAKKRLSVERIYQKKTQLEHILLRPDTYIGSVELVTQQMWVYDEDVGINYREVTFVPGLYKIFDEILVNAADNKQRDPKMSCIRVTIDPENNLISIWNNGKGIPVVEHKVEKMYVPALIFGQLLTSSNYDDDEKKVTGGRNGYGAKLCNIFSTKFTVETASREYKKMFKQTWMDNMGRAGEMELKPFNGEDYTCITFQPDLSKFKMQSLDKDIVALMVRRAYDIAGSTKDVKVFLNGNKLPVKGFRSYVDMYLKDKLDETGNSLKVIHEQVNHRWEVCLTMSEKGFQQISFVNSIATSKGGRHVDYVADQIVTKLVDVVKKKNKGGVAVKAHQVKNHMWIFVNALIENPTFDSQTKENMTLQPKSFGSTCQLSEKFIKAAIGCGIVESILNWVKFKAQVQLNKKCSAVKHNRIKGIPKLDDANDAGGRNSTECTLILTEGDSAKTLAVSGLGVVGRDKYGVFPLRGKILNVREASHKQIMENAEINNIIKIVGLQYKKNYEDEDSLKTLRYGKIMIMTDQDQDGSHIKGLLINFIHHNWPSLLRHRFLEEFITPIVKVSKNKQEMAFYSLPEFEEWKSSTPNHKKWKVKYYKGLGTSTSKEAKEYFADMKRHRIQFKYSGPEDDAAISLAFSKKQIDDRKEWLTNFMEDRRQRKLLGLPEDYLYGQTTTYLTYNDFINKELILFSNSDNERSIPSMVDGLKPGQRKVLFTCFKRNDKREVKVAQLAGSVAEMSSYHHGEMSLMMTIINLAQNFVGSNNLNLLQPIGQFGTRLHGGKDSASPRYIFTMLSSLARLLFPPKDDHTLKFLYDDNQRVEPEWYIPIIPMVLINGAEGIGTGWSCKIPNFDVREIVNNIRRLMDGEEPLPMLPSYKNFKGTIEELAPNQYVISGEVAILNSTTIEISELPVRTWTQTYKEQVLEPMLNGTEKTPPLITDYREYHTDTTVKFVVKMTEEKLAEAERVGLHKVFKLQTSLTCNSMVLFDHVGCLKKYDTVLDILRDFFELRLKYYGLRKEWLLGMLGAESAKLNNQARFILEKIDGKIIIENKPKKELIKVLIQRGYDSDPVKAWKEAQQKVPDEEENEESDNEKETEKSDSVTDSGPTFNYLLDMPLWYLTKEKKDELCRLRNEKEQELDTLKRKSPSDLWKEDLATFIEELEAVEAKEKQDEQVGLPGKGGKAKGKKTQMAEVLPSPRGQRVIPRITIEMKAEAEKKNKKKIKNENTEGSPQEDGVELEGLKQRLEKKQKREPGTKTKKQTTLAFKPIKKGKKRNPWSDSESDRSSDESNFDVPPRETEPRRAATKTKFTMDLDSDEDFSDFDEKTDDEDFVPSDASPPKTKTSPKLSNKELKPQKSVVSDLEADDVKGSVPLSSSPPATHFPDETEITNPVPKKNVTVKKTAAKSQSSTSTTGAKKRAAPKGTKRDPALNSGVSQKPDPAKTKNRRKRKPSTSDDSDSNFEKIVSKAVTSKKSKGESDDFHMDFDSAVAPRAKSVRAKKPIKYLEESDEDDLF

MDA-MB-231 [5] = test: Induction of apoptosis in human MDA-MB-231 cells assessed as proportion of necrotic cells at 1 ug measured after 24 hrs by Annexin V-FITC/propidium iodide staining based flow cytometry (reference value: 0.2%); format: functional; settings: dose 1 µg
MDA-MB-231 [6] = test: Induction of apoptosis in human MDA-MB-231 cells assessed as proportion of early apoptotic cells at 1 ug measured after 24 hrs by Annexin V-FITC/propidium iodide staining based flow cytometry (reference value: 0.2%); format: functional; settings: dose 1 µg
MDA-MB-231 [7] = test: Induction of apoptosis in human MDA-MB-231 cells assessed as proportion of viable cells at 1 ug measured after 24 hrs by Annexin V-FITC/propidium iodide staining based flow cytometry (reference value: 99%); format: functional; settings: dose 1 µg
MDA-MB-231 [8] = test: Induction of apoptosis in human MDA-MB-231 cells assessed as proportion of late apoptotic cells at 1 ug measured after 24 hrs by Annexin V-FITC/propidium iodide staining based flow cytometry (reference value: 0.5%); format: functional; settings: dose 1 µg
MCF7 [9] = test: Antiproliferative activity against human MCF-7 cells assessed as inhibition of colony formation measured after 3 weeks by crystal violet staining based soft agar colony formation assay; format: functional, cell-based; settings: MCF7, 504 h

| SMILES | IC50 (MDA-MB-231 [1]; read-out: IC50) [µM] | IC50 (THP-1) [µM] | IC50 (A549) [µM] | IC50 (MCF7 [2]) [µM] | IC50 (HCT-116) [µM] | IC50 [3] [µM] | inhibition [4] [%] | Activity (MDA-MB-231 [5]) [%] | Activity (MDA-MB-231 [6]) [%] | IC50 (MDA-MB-231 [1]) [µM] | Activity (MDA-MB-231 [7]) [%] | Activity (MDA-MB-231 [8]) [%] | IC50 (MCF7 [9]) [µg/mL] |
| --- | --- | --- | --- | --- | --- | --- | --- | --- | --- | --- | --- | --- | --- |
| COc1ccc(/C(=C/c2ccc(F)cc2)c2cccc3ccccc23)c(OC)c1OC | > 20 | 18.9 | 18.6 | 10.5 | > 20 |  |  |  |  |  |  |  |  |
| COc1ccc(C(OCc2ccc(C)cc2)c2cccc3ccccc23)c(OC)c1OC (stereo unspecified) | > 20 | > 20 | 15.7 | 10.7 | > 20 |  |  |  |  |  |  |  |  |
| COc1ccc(/C(=N/OCC(=O)O)c2cccc3ccccc23)c(OC)c1OC | > 20 | > 20 | 17.2 | > 20 | 4.98 |  |  |  |  |  |  |  |  |
| COc1cc([C@@H]2c3cc4c(cc3[C@H](O)[C@H]3COC(=O)[C@H]23)OCO4)cc(OC)c1OC [PODOFILOX] | 5.73 | 19.6 | 7.34 | 10.9 | > 20 | 0.72 | 26.9 |  |  |  |  |  |  |
| COc1ccc(C(c2ccc(OCCO)cc2)c2cccc3ccccc23)c(OC)c1OC (stereo unspecified) | > 20 | 16.6 | > 20 | > 20 | > 20 |  |  |  |  |  |  |  |  |
| COc1ccc(C(c2ccc(OCCN3CCCCC3)cc2)c2cccc3ccccc23)c(OC)c1OC (stereo unspecified) | 15.2 | 16.6 | 15 | 15.4 | 11.9 |  |  |  |  |  |  |  |  |
| COc1ccc(C(O)(C/C=C\c2ccccc2)c2cccc3ccccc23)c(OC)c1OC (stereo unspecified) | 12.8 | 19.4 | 17.6 | 10.2 | > 20 |  |  |  |  |  |  |  |  |
| COc1ccc(/C(=C\c2ccc(F)cc2)c2cccc3ccccc23)c(OC)c1OC | 16.2 | 9.08 | > 20 | 17.7 | > 20 |  |  |  |  |  |  |  |  |
| COc1ccc(C(c2ccccc2O)c2cccc3ccccc23)c(OC)c1OC (stereo unspecified) | 17.7 | > 20 | 13.6 | 16.6 | > 20 |  |  |  |  |  |  |  |  |
| COc1cc(COC(c2ccc(OC)c(OC)c2OC)c2cccc3ccccc23)cc(OC)c1 (stereo unspecified) | > 20 | > 20 | 17.5 | > 20 | > 20 |  |  |  |  |  |  |  |  |
| COc1ccc(/C(=N/O)c2cccc3ccccc23)c(OC)c1OC | 2.5 | > 20 | 13.1 | > 20 | 5.88 | 5.58 |  |  |  |  |  |  |  |
| CCOC(=O)/C=C/CO/N=C(/c1ccc(OC)c(OC)c1OC)c1cccc2ccccc12 | > 20 | > 20 | 14 | > 20 | > 20 |  |  |  |  |  |  |  |  |
| COc1ccc(C(c2ccc(OC(C)CN(C)C)cc2)c2cccc3ccccc23)c(OC)c1OC (stereo unspecified) | 4.34 | 15 | 11.4 | 13.1 | 8.41 |  |  |  |  |  |  |  |  |
| CCOC(=O)CO/N=C(/c1ccc(OC)c(OC)c1OC)c1cccc2ccccc12 | 16.4 | > 20 | 6.72 | > 20 | 3.36 |  |  |  |  |  |  |  |  |
| COc1ccc(C(O)(Cc2ccccc2)c2cccc3ccccc23)c(OC)c1OC (stereo unspecified) | 4.78 | 12.4 | > 20 | 10.6 | > 20 | 6.02 |  |  |  |  |  |  |  |
| COc1ccc(/C(=C/c2ccc(C)cc2)c2cccc3ccccc23)c(OC)c1OC | 8.31 | > 20 | 19.6 | > 20 | > 20 |  |  |  |  |  |  |  |  |
| COc1cccc2c1C(=O)c1c(O)c3c(c(O)c1C2=O)C[C@@](O)(C(=O)CO)C[C@@H]3O[C@H]1C[C@H](N)[C@H](O)[C@H](C)O1 [DOXORUBICIN] |  |  | 0.63 |  |  |  |  | 80.1 | 0.1 | 5.12 | 13.7 | 6.2 |  |
| CCOC(=O)CCO/N=C(/c1ccc(OC)c(OC)c1OC)c1cccc2ccccc12 | 15.2 | > 20 | 19.6 | > 20 | 10 |  |  |  |  |  |  |  |  |

| SMILES | IC50 (MDA-MB-231 [1]; read-out: IC50) [µM] | IC50 (THP-1) [µM] | IC50 (A549) [µM] | IC50 (MCF7 [2]) [µM] | IC50 (HCT-116) [µM] | IC50 [3] [µM] | inhibition [4] [%] | Activity (MDA-MB-231 [5]) [%] | Activity (MDA-MB-231 [6]) [%] | IC50 (MDA-MB-231 [1]) [µM] | Activity (MDA-MB-231 [7]) [%] | Activity (MDA-MB-231 [8]) [%] | IC50 (MCF7 [9]) [µg/mL] |
| --- | --- | --- | --- | --- | --- | --- | --- | --- | --- | --- | --- | --- | --- |
| COc1ccc(C(c2ccc(OCCN3CCCC3)cc2)c2cccc3ccccc23)c(OC)c1OC (stereo unspecified) | 14.4 | 5.4 | 15.8 | 15.3 | 10.8 |  |  |  |  |  |  |  |  |
| COc1ccc(C(c2ccc(OCCN(C)C)cc2)c2cccc3ccccc23)c(OC)c1OC (stereo unspecified) | 14.3 | 7.95 | 10.2 | 15.2 | 3.3 |  |  |  |  |  |  |  |  |
| COc1ccc(C(OCc2ccccc2)c2cccc3ccccc23)c(OC)c1OC (stereo unspecified) | > 20 | > 20 | 13.5 | 14.1 | > 20 |  |  |  |  |  |  |  |  |
| COc1ccc(C(O)(Cc2ccc(F)cc2)c2cccc3ccccc23)c(OC)c1OC (stereo unspecified) | 5.44 | 5.86 | 5.94 | 7.56 | > 20 |  |  |  |  |  |  |  |  |
| CCN(CC)CCOc1ccc(C(c2ccc(OC)c(OC)c2OC)c2cccc3ccccc23)cc1 (stereo unspecified) | 15.6 | 13.9 | 11.5 | 15.5 | 8.34 |  |  |  |  |  |  |  |  |
| COc1ccc(C(O)(Cc2ccc(C)cc2)c2cccc3ccccc23)c(OC)c1OC (stereo unspecified) | > 20 | > 20 | 18.7 | > 20 | > 20 |  |  |  |  |  |  |  |  |
| COc1ccc(C(c2ccccc2OCCN2CCCCC2)c2cccc3ccccc23)c(OC)c1OC (stereo unspecified) | 7.18 | 19.1 | 9.86 | 12.4 | 4.63 |  |  |  |  |  |  |  |  |
| COc1ccc(/C(=N/OC(C)=O)c2cccc3ccccc23)c(OC)c1OC | 17 | > 20 | 17.2 | > 20 | 4.98 |  |  |  |  |  |  |  |  |
| COC(=O)c1ccc(COC(c2ccc(OC)c(OC)c2OC)c2cccc3ccccc23)cc1 (stereo unspecified) | > 20 | > 20 | 12 | > 20 | > 20 |  |  |  |  |  |  |  |  |
| C=CCOC(c1ccc(OC)c(OC)c1OC)c1cccc2ccccc12 (stereo unspecified) | > 20 | > 20 | 9.71 | > 20 | > 20 |  |  |  |  |  |  |  |  |
| CCOC(=O)C(C)C(O)(c1ccc(OC)c(OC)c1OC)c1cccc2ccccc12 (stereo unspecified) | > 20 | > 20 | 4 | > 20 | > 20 |  |  |  |  |  |  |  |  |
| CC/C(=C(\c1ccccc1)c1ccc(OCCN(C)C)cc1)c1ccccc1 [TAMOXIFEN] | > 20 | 11.9 | 10.1 |  | 45 |  |  |  |  |  |  |  | 1.31 (≈ 3.53 µM) |
| COc1ccc(C(c2ccc(OCC(=O)O)cc2)c2cccc3ccccc23)c(OC)c1OC (stereo unspecified) | > 20 | > 20 | 16.4 | > 20 | 5.02 |  |  |  |  |  |  |  |  |
| C=CCC(O)(c1ccc(OC)c(OC)c1OC)c1cccc2ccccc12 (stereo unspecified) | > 20 | > 20 | 10.7 | > 20 | > 20 |  |  |  |  |  |  |  |  |
| COc1ccc(C(OCCN(C)C)c2cccc3ccccc23)c(OC)c1OC (stereo unspecified) | > 20 | > 20 | 17.9 | 11.1 | > 20 |  |  |  |  |  |  |  |  |
| COc1ccc(C(c2ccc(O)cc2)c2cccc3ccccc23)c(OC)c1OC (stereo unspecified) | 17.4 | 9.45 | 16.4 | 17.5 | 16 |  |  |  |  |  |  |  |  |
| C=C(c1ccc(OC)c(OC)c1OC)c1cccc2ccccc12 | 4.66 | 12.5 | 19.8 | 11.7 | > 20 | 9.03 |  |  |  |  |  |  |  |
